# From US11492385B2, “Long-acting co-agonists of the glucagon and GLP-1 receptors” (Merck Sharp & Dohme Corp., priority 2015, dated 2022)
# Starred links: 1 amine or outer side, 2 acyl side, 3 side chain; linkers in the order of their positions; H or OH if unused. Non-standard residues stand in square brackets, D forms with d. Residues, ends and D or L forms follow the SMILES beside them. Groups on a side chain read outwards from the residue. *: point of attachment. C20 diacid = O=C(O)CCCCCCCCCCCCCCCCCCC(=O)*; Phe(4-CH2NH2) = NCc1ccc(C[C@H](N)C(=O)O)cc1; C18 diacid = O=C(O)CCCCCCCCCCCCCCCCC(=O)*; C16 diacid = O=C(O)CCCCCCCCCCCCCCC(=O)*; γGlu = O=C(O)[C@H](CCC(=O)[*:2])N[*:1]; Met(O2) = CS(=O)(=O)CC[C@H](N)C(=O)O; AEEA = NCCOCCOCC(=O)O; Aib = CC(C)(N)C(=O)O
# Key:
# human GLP1R = biological target: T1, human GLP1R (Homo sapiens, UniProt P43220); experiment: cAMP activity assay, cells expressing human GLP1R; type: cell-based; settings: cAMP production, assay buffer with or without 20% human serum (not stated which)
# T1 construct: expressed in transfected cells; kept under Blasticidin and Hygromycin selection
# T1 sequence (P43220 24-463): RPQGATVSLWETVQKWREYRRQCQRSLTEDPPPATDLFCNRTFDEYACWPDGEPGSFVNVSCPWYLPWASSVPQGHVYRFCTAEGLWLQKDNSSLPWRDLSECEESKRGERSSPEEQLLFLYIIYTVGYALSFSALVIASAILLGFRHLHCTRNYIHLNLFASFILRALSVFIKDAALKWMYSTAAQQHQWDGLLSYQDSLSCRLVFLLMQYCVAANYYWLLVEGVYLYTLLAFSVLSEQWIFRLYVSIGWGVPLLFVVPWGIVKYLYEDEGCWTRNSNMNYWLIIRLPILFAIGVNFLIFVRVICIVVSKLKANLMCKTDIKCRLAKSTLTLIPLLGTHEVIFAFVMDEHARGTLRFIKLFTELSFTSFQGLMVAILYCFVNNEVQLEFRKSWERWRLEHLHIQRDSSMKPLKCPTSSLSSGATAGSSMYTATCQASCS
# Outline: (§1)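 Peptides as 10-point titrations from DMSO tested on cells expressing human GLP1R or GCGR. cAMP measured by luminescent kit after overnight room-temperature incubation in the dark. EC50 from four-parameter logistic fit; native GLP-1 and glucagon as controls.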
# human GCGR = biological target: T2, human GCGR (Homo sapiens, UniProt P47871); experiment: cAMP activity assay, cells expressing human GCGR; type: cell-based; settings: for EC50: cAMP production, cells expressing human GCGR, assay buffer with or without 20% human serum (not stated which), read-out: GCGR EC50 human; for hGCGR/hGLP1R (hTone): ratio of human GCGR EC50 to human GLP1R EC50
# T2 construct: expressed in transfected cells; kept under Blasticidin and Hygromycin selection
# T2 sequence (P47871 26-477): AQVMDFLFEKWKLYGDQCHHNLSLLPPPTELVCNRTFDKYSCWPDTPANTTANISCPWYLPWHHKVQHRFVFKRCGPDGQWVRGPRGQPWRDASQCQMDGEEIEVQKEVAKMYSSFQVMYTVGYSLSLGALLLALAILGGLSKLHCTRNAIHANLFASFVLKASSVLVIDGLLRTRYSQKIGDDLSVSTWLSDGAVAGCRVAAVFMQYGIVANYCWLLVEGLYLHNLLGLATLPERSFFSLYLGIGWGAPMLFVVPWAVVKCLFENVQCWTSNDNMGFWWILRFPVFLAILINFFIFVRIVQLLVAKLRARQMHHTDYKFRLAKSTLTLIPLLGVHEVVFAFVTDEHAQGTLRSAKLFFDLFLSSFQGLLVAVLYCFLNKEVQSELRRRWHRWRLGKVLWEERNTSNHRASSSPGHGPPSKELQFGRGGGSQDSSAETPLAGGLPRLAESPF
# Outline: as §1
SMILES,EC50 (human GLP1R) [pM],EC50 (human GCGR) [pM],hGCGR/hGLP1R (hTone) (human GCGR)
CC(C)C[C@H](NC(=O)[C@H](Cc1ccc(O)cc1)NC(=O)[C@H](CCCCN)NC(=O)[C@H](CO)NC(=O)[C@H](CCCCNC(=O)CC[C@H](NC(=O)CC[C@H](NC(=O)CCCCCCCCCCCCCCC(=O)O)C(=O)O)C(=O)O)NC(=O)[C@H](CC(=O)O)NC(=O)[C@H](CO)NC(=O)[C@@H](NC(=O)[C@H](Cc1ccccc1)NC(=O)[C@@H](NC(=O)CNC(=O)[C@H](CCC(N)=O)NC(=O)[C@@H](CO)NC(=O)[C@@H](N)Cc1c[nH]cn1)[C@@H](C)O)[C@@H](C)O)C(=O)N[C@@H](CC(=O)O)C(=O)N[C@@H](CCC(=O)O)C(=O)N[C@@H](CCCNC(=N)N)C(=O)N[C@@H](C)C(=O)N[C@@H](C)C(=O)N[C@@H](CCC(N)=O)C(=O)N[C@@H](CC(=O)O)C(=O)N[C@@H](Cc1ccccc1)C(=O)N[C@H](C(=O)N[C@@H](CCC(N)=O)C(=O)N[C@@H](Cc1c[nH]c2ccccc12)C(=O)N[C@@H](CC(C)C)C(=O)N[C@@H](CC(C)C)C(=O)N[C@@H](CCCCN)C(=O)N[C@H](C(N)=O)[C@@H](C)O)C(C)C [compound 9],670,1980,3.22
CC(C)C[C@H](NC(=O)[C@H](Cc1c[nH]c2ccccc12)NC(=O)[C@H](CCC(N)=O)NC(=O)[C@@H](NC(=O)[C@H](Cc1ccccc1)NC(=O)[C@H](CC(=O)O)NC(=O)[C@H](CCC(N)=O)NC(=O)[C@H](C)NC(=O)[C@H](C)NC(=O)[C@H](CCCNC(=N)N)NC(=O)C(C)(C)NC(=O)[C@H](CC(=O)O)NC(=O)[C@H](CC(C)C)NC(=O)[C@H](Cc1ccc(O)cc1)NC(=O)[C@H](CCCCN)NC(=O)[C@H](CO)NC(=O)[C@H](CCCCNC(=O)COCCOCCNC(=O)COCCOCCNC(=O)CC[C@H](NC(=O)CCCCCCCCCCCCCCCCC(=O)O)C(=O)O)NC(=O)[C@H](CC(=O)O)NC(=O)[C@H](CO)NC(=O)[C@@H](NC(=O)[C@H](Cc1ccccc1)NC(=O)[C@@H](NC(=O)CNC(=O)[C@H](CCC(N)=O)NC(=O)C(C)(C)NC(=O)[C@@H](N)Cc1c[nH]cn1)[C@@H](C)O)[C@@H](C)O)C(C)C)C(=O)N[C@@H](CCS(C)(=O)=O)C(=O)N[C@@H](CC(=O)O)C(=O)N[C@H](C(N)=O)[C@@H](C)O [compound 4] (H-H[Aib]QGTFTSDK([AEEA-AEEA-γGlu-C18 diacid])SKYLD[Aib]RAAQDFVQWL[Met(O2)]DT-NH2; N-terminus assumed),270,1420,5.36
CC(C)C[C@H](NC(=O)[C@H](Cc1ccc(O)cc1)NC(=O)[C@H](CCCCN)NC(=O)[C@H](CO)NC(=O)[C@H](Cc1ccc(O)cc1)NC(=O)[C@H](CC(=O)O)NC(=O)[C@H](CO)NC(=O)[C@@H](NC(=O)[C@H](Cc1ccccc1)NC(=O)[C@@H](NC(=O)CNC(=O)[C@H](CCC(N)=O)NC(=O)C(C)(C)NC(=O)[C@@H](N)Cc1c[nH]cn1)[C@@H](C)O)[C@@H](C)O)C(=O)N[C@@H](CC(=O)O)C(=O)N[C@@H](C)C(=O)N[C@@H](CCCNC(=N)N)C(=O)N[C@@H](C)C(=O)N[C@@H](C)C(=O)N[C@@H](CCCCNC(=O)COCCOCCNC(=O)COCCOCCNC(=O)CC[C@H](NC(=O)CCCCCCCCCCCCCCCCCCC(=O)O)C(=O)O)C(=O)N[C@@H](CC(=O)O)C(=O)N[C@@H](Cc1ccccc1)C(=O)N[C@H](C(=O)N[C@@H](CCC(N)=O)C(=O)N[C@@H](Cc1c[nH]c2ccccc12)C(=O)N[C@@H](CC(C)C)C(=O)N[C@@H](CCS(C)(=O)=O)C(=O)N[C@@H](CC(=O)O)C(=O)N[C@H](C(N)=O)[C@@H](C)O)C(C)C [compound 43] (H-H[Aib]QGTFTSDYSKYLDARAAK([AEEA-AEEA-γGlu-C20 diacid])DFVQWL[Met(O2)]DT-NH2; N-terminus assumed),690,920,1.3
CC(C)C[C@H](NC(=O)[C@H](Cc1c[nH]c2ccccc12)NC(=O)[C@H](CCC(N)=O)NC(=O)[C@@H](NC(=O)[C@H](Cc1ccccc1)NC(=O)[C@H](CC(=O)O)NC(=O)[C@H](CCC(N)=O)NC(=O)[C@H](C)NC(=O)[C@H](C)NC(=O)[C@H](CCCNC(=N)N)NC(=O)C(C)(C)NC(=O)[C@H](CC(=O)O)NC(=O)[C@H](CC(C)C)NC(=O)[C@H](Cc1ccc(O)cc1)NC(=O)[C@H](CCCCNC(=O)COCCOCCNC(=O)COCCOCCNC(=O)CC[C@H](NC(=O)CCCCCCCCCCCCCCCCC(=O)O)C(=O)O)NC(=O)[C@H](CO)NC(=O)[C@H](Cc1ccc(O)cc1)NC(=O)[C@H](CC(=O)O)NC(=O)[C@H](CO)NC(=O)[C@@H](NC(=O)[C@H](Cc1ccccc1)NC(=O)[C@@H](NC(=O)CNC(=O)[C@H](CCC(N)=O)NC(=O)C(C)(C)NC(=O)[C@@H](N)Cc1c[nH]cn1)[C@@H](C)O)[C@@H](C)O)C(C)C)C(=O)N[C@@H](CCS(C)(=O)=O)C(=O)N[C@@H](CC(=O)O)C(=O)N[C@H](C(N)=O)[C@@H](C)O [compound 5] (H-H[Aib]QGTFTSDYSK([AEEA-AEEA-γGlu-C18 diacid])YLD[Aib]RAAQDFVQWL[Met(O2)]DT-NH2),110,970,8.80
CC(C)C[C@H](NC(=O)[C@H](Cc1ccc(O)cc1)NC(=O)[C@H](CCCCN)NC(=O)[C@H](CO)NC(=O)[C@H](Cc1ccc(O)cc1)NC(=O)[C@H](CC(=O)O)NC(=O)[C@H](CO)NC(=O)[C@@H](NC(=O)[C@H](Cc1ccccc1)NC(=O)[C@@H](NC(=O)CNC(=O)[C@H](CCC(N)=O)NC(=O)C(C)(C)NC(=O)[C@@H](N)Cc1c[nH]cn1)[C@@H](C)O)[C@@H](C)O)C(=O)N[C@@H](CC(=O)O)C(=O)N[C@@H](C)C(=O)N[C@@H](CCCNC(=N)N)C(=O)N[C@@H](C)C(=O)N[C@@H](C)C(=O)N[C@@H](CCC(N)=O)C(=O)N[C@@H](CCCCNC(=O)COCCOCCNC(=O)COCCOCCNC(=O)CC[C@H](NC(=O)CCCCCCCCCCCCCCC(=O)O)C(=O)O)C(=O)N[C@@H](Cc1ccccc1)C(=O)N[C@H](C(=O)N[C@@H](CCC(N)=O)C(=O)N[C@@H](Cc1c[nH]c2ccccc12)C(=O)N[C@@H](CC(C)C)C(=O)N[C@@H](CC(C)C)C(=O)N[C@@H](CC(=O)O)C(=O)N[C@H](C(N)=O)[C@@H](C)O)C(C)C [compound 18] (H-H[Aib]QGTFTSDYSKYLDARAAQK([AEEA-AEEA-γGlu-C16 diacid])FVQWLLDT-NH2),30,70,2.19
CC(C)C[C@H](NC(=O)[C@H](Cc1ccc(O)cc1)NC(=O)[C@H](CCCCN)NC(=O)[C@H](CO)NC(=O)[C@H](Cc1ccc(O)cc1)NC(=O)[C@H](CC(=O)O)NC(=O)[C@H](CO)NC(=O)[C@@H](NC(=O)[C@H](Cc1ccccc1)NC(=O)[C@@H](NC(=O)CNC(=O)[C@H](CCC(N)=O)NC(=O)C(C)(C)NC(=O)[C@@H](N)Cc1c[nH]cn1)[C@@H](C)O)[C@@H](C)O)C(=O)N[C@@H](CC(=O)O)C(=O)N[C@@H](C)C(=O)N[C@@H](CCCNC(=N)N)C(=O)N[C@@H](C)C(=O)N[C@@H](C)C(=O)N[C@@H](Cc1ccc(CNC(=O)COCCOCCNC(=O)COCCOCCNC(=O)CC[C@H](NC(=O)CCCCCCCCCCCCCCCCC(=O)O)C(=O)O)cc1)C(=O)N[C@@H](CC(=O)O)C(=O)N[C@@H](Cc1ccccc1)C(=O)N[C@H](C(=O)N[C@@H](CCC(N)=O)C(=O)N[C@@H](Cc1c[nH]c2ccccc12)C(=O)N[C@@H](CC(C)C)C(=O)N[C@@H](CC(C)C)C(=O)N[C@@H](CC(=O)O)C(=O)N[C@H](C(N)=O)[C@@H](C)O)C(C)C [compound 31] (H-H[Aib]QGTFTSDYSKYLDARAA[Phe(4-CH2NH2)]([AEEA-AEEA-γGlu-C18 diacid])DFVQWLLDT-NH2),370,260,0.70
CC(C)C[C@H](NC(=O)[C@H](CC(C)C)NC(=O)[C@H](CCCCN)NC(=O)[C@H](CO)NC(=O)[C@H](Cc1ccc(O)cc1)NC(=O)[C@H](CC(=O)O)NC(=O)[C@H](CO)NC(=O)[C@@H](NC(=O)[C@H](Cc1ccccc1)NC(=O)[C@@H](NC(=O)CNC(=O)[C@H](CCC(N)=O)NC(=O)C(C)(C)NC(=O)[C@@H](N)Cc1c[nH]cn1)[C@@H](C)O)[C@@H](C)O)C(=O)N[C@@H](CC(=O)O)C(=O)N[C@@H](C)C(=O)N[C@@H](CCCNC(=N)N)C(=O)N[C@@H](C)C(=O)N[C@@H](C)C(=O)N[C@@H](CCCCNC(=O)COCCOCCNC(=O)COCCOCCNC(=O)CC[C@H](NC(=O)CCCCCCCCCCCCCCCCC(=O)O)C(=O)O)C(=O)N[C@@H](CC(=O)O)C(=O)N[C@@H](Cc1ccccc1)C(=O)N[C@H](C(=O)N[C@@H](CCC(N)=O)C(=O)N[C@@H](Cc1c[nH]c2ccccc12)C(=O)N[C@@H](CC(C)C)C(=O)N[C@@H](CCS(C)(=O)=O)C(=O)N[C@@H](CC(=O)O)C(=O)N[C@H](C(N)=O)[C@@H](C)O)C(C)C [compound 76] (H-H[Aib]QGTFTSDYSKLLDARAAK([AEEA-AEEA-γGlu-C18 diacid])DFVQWL[Met(O2)]DT-NH2; N-terminus assumed),610,740,1.2
CC(C)C[C@H](NC(=O)[C@H](Cc1ccc(O)cc1)NC(=O)[C@H](CCCCN)NC(=O)[C@H](CO)NC(=O)[C@H](Cc1ccc(O)cc1)NC(=O)[C@H](CC(=O)O)NC(=O)[C@H](CO)NC(=O)[C@@H](NC(=O)[C@H](Cc1ccccc1)NC(=O)[C@@H](NC(=O)CNC(=O)[C@H](CCC(N)=O)NC(=O)[C@@H](CO)NC(=O)[C@@H](N)Cc1c[nH]cn1)[C@@H](C)O)[C@@H](C)O)C(=O)N[C@@H](CC(=O)O)C(=O)N[C@@H](C)C(=O)N[C@@H](CCCNC(=N)N)C(=O)N[C@@H](C)C(=O)N[C@@H](C)C(=O)N[C@@H](CCCCNC(=O)COCCOCCNC(=O)COCCOCCNC(=O)CC[C@H](NC(=O)CCCCCCCCCCCCCCC(=O)O)C(=O)O)C(=O)N[C@@H](CC(=O)O)C(=O)N[C@@H](Cc1ccccc1)C(=O)N[C@H](C(=O)N[C@@H](CCC(N)=O)C(=O)N[C@@H](Cc1c[nH]c2ccccc12)C(=O)N[C@@H](CC(C)C)C(=O)N[C@@H](CCS(C)(=O)=O)C(=O)N[C@@H](CC(=O)O)C(=O)N[C@H](C(N)=O)[C@@H](C)O)C(C)C [compound 14] (H-H[dS]QGTFTSDYSKYLDARAAK([AEEA-AEEA-γGlu-C16 diacid])DFVQWL[Met(O2)]DT-NH2),1130,40,0.03
